We go through 14 compounds from publication PMC4574934, “Gliadin Induces Neutrophil Migration via Engagement of the Formyl Peptide Receptor, FPR1” (PLoS ONE, 2015).

This assay deals with human neutrophils. Kind of assay: EZ-TAXIScan chemotaxis assay, human neutrophils. In kind it is cell-based. Details: key to Chemotactic response: moderate (++) response; stronger chemotactic response (+++). Conditions: for Chemotaxis Index (CI), Control / Speed, Control: no cyclosporine H; for Chemotactic response / Chemotaxis Index (CI) / Speed: Table 2, peptide 20 ng/mL, 1-3 experiments. Here is the method: Heparinized venous blood was centrifuged over a Ficoll-Paque PLUS gradient (d = 1.077 g/ml, GE Healthcare, Boston, MA). The sedimented granulocyte/erythrocyte fraction was collected, and erythrocytes were lysed with cold lysis buffer (155 mM NH4Cl, 10 mM KHCO3, 0.1 mM EDTA). Cells were resuspended in HBSS without Ca^2+/Mg^2+ (Thermo Scientific, Tewksbury, MA), and viability and purity were assessed as described above. Viability of neutrophils was >95%, purity was 98–99%.
Neutrophils were counted and applied in the EZ-TAXIScan chemotaxis assay. […] The EZ-TAXIScan chamber (Effector Cell Institute, Tokyo) was assembled as described by the manufacturer. Cell migration was recorded every 15 seconds for 30 minutes at 37°C in a humidified environmental chamber. Coverslips and chips used in the chamber were coated with 1% BSA at room temperature for 1 hour. All glass coverslips were ultrasonicated and washed before use. Cell migration analysis was conducted with MATLAB software. Cell tracks were subsequently used to compute the chemotaxis index (CI) and speed for each tracked cell at each time step, as well as the average CI and average speed for each experiment.

[1] abbreviates: Table 1, neutrophils pretreated with cyclosporine H (FPR1 inhibitor), 5 experiments.
Where [2] appears, read: Table 3, in the presence of cyclosporine H (FPR1 inhibitor), 2-3 experiments.
[3] abbreviates: human neutrophils pretreated with cyclosporine H.

Take `CCCCC/C=C\C[C@@H](O)/C=C/C=C/C=C\[C@@H](O)CCCC(=O)O` [LTB4, leukotriene B4, reference compound]: under setting [1], the “Chemotaxis Index (CI), Cyclosporine H” value was 0.49 ± 0.01 and the “Speed, Cyclosporine H” value was found to be 9.23 ± 0.07 μm/minute. For the setting “Table 1, 5 experiments”, the “Chemotaxis Index (CI), Control” value turned out to be 0.51 ± 0.01 and the “Speed, Control” value turned out to be 9.68 ± 0.30 μm/minute.

Regarding “GSVQPQQLPQFEEIRNLALQ [alpha-gliadin synthetic library peptide]”, the Chemotactic response result was “+++”, the “Chemotaxis Index (CI)” value is on record as 0.34 ± 0.01 and the Speed was determined as 8.10 ± 0.18 μm/minute. Under setting [2], the “Chemotaxis Index (CI), Cyclosporine H” value is recorded as 0.02 ± 0.01 and the “Speed, Cyclosporine H” value is on record as 0.30 ± 0.06 μm/minute. In addition, where the note is “Table 3, 2-3 experiments”, the “Chemotaxis Index (CI), Control” value is 0.33 ± 0.07 and the “Speed, Control” value amounted to 7.90 ± 0.87 μm/minute.

In the case of “LQELCCQHLWQIPEQSQCQA [alpha-gliadin synthetic library peptide]”, the Chemotactic response result is listed as “++”, the “Chemotaxis Index (CI)” value is 0.18 and the Speed was determined as 8.85 μm/minute.

For the compound “MVRVPVPQLQPQNPSQQHPQ [alpha-gliadin synthetic library peptide]”, the Chemotactic response entry is listed as “++”, the “Chemotaxis Index (CI)” value amounted to 0.30 ± 0.01 and the Speed is recorded as 6.68 ± 1.92 μm/minute. Further, under setting [2], the “Chemotaxis Index (CI), Cyclosporine H” value was found to be 0.03 ± 0.01 and the “Speed, Cyclosporine H” value turned out to be 0.45 ± 0.11 μm/minute. Under “Table 3, 2-3 experiments”, the “Chemotaxis Index (CI), Control” value came to 0.28 ± 0.03 and the “Speed, Control” value is recorded as 7.50 ± 1.95 μm/minute.

Consider “PFPQPQLPYLQPQPFRPQQP [alpha-gliadin synthetic library peptide]”, for which the Chemotactic response result is on record as “++”, the “Chemotaxis Index (CI)” value was determined as 0.21 ± 0.01 and the Speed is given as 9.94 ± 0.09 μm/minute.

“PPYCTIVPFGIFGTNYR [alpha-gliadin synthetic library peptide]”: the Chemotactic response entry is “++”, the “Chemotaxis Index (CI)” value came to 0.29 ± 0.01 and the Speed stood at 8.55 ± 0.11 μm/minute.

As to “PQNPSQQHPQEQVPLVQQQQ [alpha-gliadin synthetic library peptide]”, the Chemotactic response entry is on record as “++”, the “Chemotaxis Index (CI)” value came to 0.23 and the Speed is reported as 6.73 μm/minute.

In the case of “PQQPISQQQQQQQQQQQQQQ [alpha-gliadin synthetic library peptide]”, the Chemotactic response result is given as “++”, the “Chemotaxis Index (CI)” value is recorded as 0.29 and the Speed is given as 7.62 μm/minute.

In the case of “QIPEQSQCQAIHNVVHAIIL [alpha-gliadin synthetic library peptide]”, the Chemotactic response result is “+++”, the “Chemotaxis Index (CI)” value is 0.33 and the Speed was determined as 8.64 μm/minute.

“QQHNIAHGRSQVLQQSTYQL [alpha-gliadin synthetic library peptide]”: the Chemotactic response entry is “+++”, the “Chemotaxis Index (CI)” value is listed as 0.28 ± 0.01 and the Speed was 10.17 ± 1.45 μm/minute. Moreover, under setting [2], the “Chemotaxis Index (CI), Cyclosporine H” value is 0.05 ± 0.02 and the “Speed, Cyclosporine H” value was 0.48 ± 0.19 μm/minute. Moreover, where the note is “Table 3, 2-3 experiments”, the “Chemotaxis Index (CI), Control” value stood at 0.27 ± 0.02 and the “Speed, Control” value turned out to be 6.65 ± 0.33 μm/minute.

With “QQYPLGQGSFRPSQQNPLAQ [alpha-gliadin synthetic library peptide]”, the Chemotactic response entry was “++”, the “Chemotaxis Index (CI)” value stood at 0.21 and the Speed stood at 8.08 μm/minute.

Turning to “QVLQQSTYQLLQELCCQHLW [alpha-gliadin synthetic library peptide]”, the Chemotactic response result was “++”, the “Chemotaxis Index (CI)” value turned out to be 0.33 and the Speed is listed as 7.49 μm/minute.

Consider “SSQVSFQQPLQQYPLGQGSF [alpha-gliadin synthetic library peptide]”, for which the Chemotactic response entry is “++”, the “Chemotaxis Index (CI)” value amounted to 0.19 and the Speed is 7.65 μm/minute.

Consider cyclosporine H [reference compound], for which, under setting [3], the “effect on PT-gliadin-induced chemotaxis” value was “completely abrogated”, the “effect on fMLP-mediated neutrophil chemotaxis” value is “abolished” and the “effect on leukotriene B4 (LTB4)-mediated chemotaxis” value is “remained unaffected”.
